# Reference: article PMC12703733, “Probing Guanidino Pendant or Bridged Groups in Cyclic Antimicrobial Peptides Derived from Temporin L: A Strategy to Improve Efficacy against Gram-Negative Bacteria” (Journal of Medicinal Chemistry, 2025)
# Like-named read-outs stand apart in the source and are kept apart here. Bridge positions count the residues as written; N and C are the ends. Square brackets hold non-standard residues; d marks the D form. Peptide text beside a SMILES is read from it.
# Columns and labels:
# [1] = assay type: cell-based; conditions: Cell viability (%)
# Description: (§1) For the evaluation of peptides’ cytotoxicity, the human immortalized keratinocytes (HaCaT cells), purchased from AddexBio (San Diego, CA, USA), and BEAS-2B were used. HaCaT cells were cultured in Dulbecco’s modified Eagle’s medium supplemented with 4 mM glutamine (DMEM), 10% heat-inactivated fetal bovine serum (FBS), and 0.1 mg/mL of penicillin and streptomycin, at 37 °C and 5% CO2. BEAS-2B cells were cultured in RPMI, supplemented with 2 mM glutamine (DMEM), 10% heat-inactivated fetal bovine serum (FBS), 1 mM sodium pyruvate, and 0.1 mg/mL of penicillin and streptomycin, at 37 °C and 5% CO2. Cytotoxicity was tested in vitro using a colorimetric assay that relies on the intracellular reduction of the yellow 3-(4,5-dimethylthiazol-2-yl)-2,5-diphenyltetrazolium bromide salt (MTT) by mitochondrial dehydrogenases of metabolically active cells in formazan crystals (purple). About 4 × 10^4 HaCaT and BEAS-2B cells, suspended in DMEM supplemented with 2% FBS, were plated in triplicate wells of a 96-well microtiter plate. The plate was incubated overnight at 37 °C and 5% CO2. Then, the cells were treated with different concentrations of the peptide (from 100 to 3.12 μM) in a fresh serum-free medium for 2 h and for a longer time (24 h). Following peptide treatment, the medium was removed, and MTT (0.5 mg/mL) solution in Hank’s buffer (136 mM NaCl, 4.2 mM Na2HPO4, 4.4 mM KH2PO4, 5.4 mM KCl, 4.1 mM NaHCO3, pH 7.2, supplemented with 20 mM D-glucose) was added to each well of the plate, that was then incubated for 4 h at 37 °C and 5% CO2. The purple formazan crystals were dissolved using acidified 2-propanol and a microplate reader (Infinite M200; Tecan, Salzburg, Austria) was used to measure the absorbance of each well at 570 nm. The percentage of cell viability was calculated compared to the control, which consisted of cells without any peptide treatment (corresponding to 100% viability) and all data represent the mean of three independent experiments ± SEM.
# [2] = test system: BEAS-2B cells; assay type: cell-based
# Description: as §1
structure (smiles),measurement,setting,value
"CC[C@H](C)[C@H](NC(=O)[C@H](CCCNC(=N)N)NC(=O)[C@H]1CCC(=O)NCCCC[C@H](NC(=O)[C@H](Cc2ccccc2)NC(=O)[C@H](Cc2c[nH]c3ccccc23)NC(=O)[C@@H]2CCCN2C(=O)[C@@H](NC(=O)[C@@H](N)Cc2ccccc2)C(C)C)C(=O)N[C@@H](CCCCN)C(=O)N[C@@H](Cc2ccccc2)C(=O)N[C@H](CC(C)C)C(=O)N1)C(=O)N[C@@H](CC(C)C)C(N)=O [Peptide 2, FVPWF[KKFle]RIL] (H-FVPWFKKF[dL][dE]RIL-NH2; lactam 6-10)",viability at 6.25 µM,[1],107%
same,viability at 12.5 µM,[1],100%
same,viability at 25 µM,[1],91%
same,viability at 100 µM,[1],5%
same,Cell viability (%),[2]; 3.12 µM,132%
same,Cell viability (%),[2]; 6.25 µM,119%
same,Cell viability (%),[2]; 12.5 µM,114%
same,Cell viability (%),[2]; 25 µM,102%
same,Cell viability (%),[2]; 100 µM,8%
